Measurements: patent publication US20050163876A1, “Cancer treatment using natural plant products or essential oils or components from some pistacia species” (DATA MEDICA PADOVA S.p.A., priority 2003, published 2005)

Experiments:
[1] = tested on: LoVo cells; assay: Pearson correlation between oil components and cytotoxic activity; design: species or system human; settings: P. lentiscus oils / LoVo cells
Procedure: The Pearson correlation and linear regression analyzes between the oil components and biological activity was also determined. To the scope all data were collected in a data base and analysed by the GraphPad Prism Version 3.0 statistical software to identify substances directly responsible of biological activity.

[2] = tested on: transplanted hamster pancreatic tumors; settings: cited from earlier work

CC(=O)OC1CC2CCC1(C)C2(C)C (stereo not shown) [Bornyl Acetate]
Pearson correlation r between oil component and cytotoxic activity [1]: 0.8693

C=C1CC[C@H]2O[C@]2(C)CC[C@@H]2[C@@H]1CC2(C)C [Caryophyllene Oxide]
Pearson correlation r between oil component and cytotoxic activity [1]: 0.8355

Cc1ccc(C(C)C)cc1 [Para cymene, Para Cymene]
Pearson correlation r between oil component and cytotoxic activity [1]: −0.8621

C=C(C)[C@@H]1CC=C(CO)CC1 [perillyl alcohol]
growth of transplanted tumors relative to controls [2]: less than half that of controls
